The test concerns the target T1, 14-3-3γ (Homo sapiens, UniProt P61981).
T1 construct: made in house; host or cells: E. coli NiCo21 (DE3)
T1 sequence (P61981 1-247): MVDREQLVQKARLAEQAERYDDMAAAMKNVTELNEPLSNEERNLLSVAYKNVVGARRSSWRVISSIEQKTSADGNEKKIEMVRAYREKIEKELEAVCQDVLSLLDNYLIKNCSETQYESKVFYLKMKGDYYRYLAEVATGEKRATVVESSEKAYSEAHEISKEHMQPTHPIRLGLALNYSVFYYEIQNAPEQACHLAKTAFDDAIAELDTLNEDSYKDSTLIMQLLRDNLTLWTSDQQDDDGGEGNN
The experiment in a line: Fluorescence anisotropy (FA) binary binding study: 14-3-3 titrated to fluorescein-labelled peptide. The following applies: for Affinity Kd / pKd: Table S4, point-mutated peptides; for Affinity Kd / pKd / ΔΔG of point mutation (FA): FA; for Affinity Kd: 10 nM FITC-labelled peptide; for pKd: 14-3-3 titrated to 10 nM FITC-labelled peptide, HEPES pH 7.4, room temperature, 4PL fit, read-out: Affinity Kd; for Fold change to 1 / ΔG / ΔΔG to 1: Table S4; for ΔΔG of point mutation (FA): relative to 1, mean ± SD, SD. The method, boiled down: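 N-terminal His6-tagged full-length human 14-3-3γ expressed in E. coli, Ni-NTA purified and dialyzed into 25 mM HEPES pH 8.0, 100 mM NaCl, 10 mM MgCl2, 500 μM TCEP. Tag-cleaved 14-3-3σ truncated after T231 used for crystallography. Labelled peptides made by Fmoc solid-phase synthesis.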

The mark [1] stands for this setting: FA Kd of peptide divided by Kd of 1, mean of n = 3.
Setting [2] is: calculated from FA Kd, mean of n = 3.
[3] abbreviates: ΔG minus ΔG of 1, FA, replicate 1.
[4] abbreviates: ΔG minus ΔG of 1, FA, replicate 2.
[5] abbreviates: ΔG minus ΔG of 1, FA, replicate 3.
Where [6] appears, read: ΔG of peptide minus ΔG of 1, FA, mean of n = 3.

pKd: −log10 of the molar value. Where a SMILES comes first, the peptide text is derived from it. [ ]: non-standard residue; d: D form. ξ: configuration not given here. Phe(4-NO2) = N[C@@H](Cc1ccc([N+](=O)[O-])cc1)C(=O)O; ξAla(4-thiazolyl) = NC(Cc1cscn1)C(=O)O; pS = N[C@@H](COP(=O)(O)O)C(=O)O; β3hS = N[C@@H](CO)CC(=O)O; Nva = CCC[C@H](N)C(=O)O; βAla = NCCC(=O)O

One may read the pKd as −log10 of the Kd, conventionally taken in molar units. For `CCC[C@H](NC(=O)[C@H](N)CCCCN)C(=O)N[C@@H](Cc1ccc([N+](=O)[O-])cc1)C(=O)NC(Cc1cscn1)C(=O)N[C@@H](COP(=O)(O)O)C(=O)N[C@@H](Cc1ccc(O)cc1)C(=O)N[C@@H](CO)CC(=O)NCCC(=O)N[C@@H](Cc1ccc([N+](=O)[O-])cc1)C(=O)N[C@@H](CCCCN)C(N)=O` (stereo partly drawn) [4a] (H-[dK][Nva][Phe(4-NO2)][ξAla(4-thiazolyl)][pS]Y[β3hS][βAla][Phe(4-NO2)]K-NH2; N-terminus and C-terminus assumed), the “Affinity Kd” value by setting is: (replicate 1) 47 nM; (replicate 2) 41 nM; (replicate 3) 63 nM. For the same molecule, the pKd (mean of n = 3) was 7.30. For the same molecule, the “Fold change to 1” value runs as follows: (FA Kd / Kd of 1, replicate 1) 0.9; (FA Kd / Kd of 1, replicate 2) 0.6; (FA Kd / Kd of 1, replicate 3) 0.9; under setting [1], 0.8. Moreover, the ΔG under setting [2] is listed as -10.0 kcal/mol; the ΔG (from FA Kd, replicate 1) was -10.0 kcal/mol; the ΔG (from FA Kd, replicate 2) is -10.1 kcal/mol; the ΔG (from FA Kd, replicate 3) is given as -9.8 kcal/mol. Further, the “ΔΔG to 1” value by setting is: under setting [3], -0.1 kcal/mol; under setting [4], -0.3 kcal/mol; under setting [5], -0.1 kcal/mol; under setting [6], -0.2 kcal/mol.

`CCC[C@H](NC(=O)[C@H](N)CCCCN)C(=O)N[C@@H](Cc1ccc([N+](=O)[O-])cc1)C(=O)NC(Cc1cscn1)C(=O)N[C@@H](COP(=O)(O)O)C(=O)N[C@@H](Cc1ccccc1)C(=O)N[C@@H](CO)CC(=O)NCCC(=O)N[C@@H](Cc1ccc([N+](=O)[O-])cc1)C(=O)N[C@@H](CCCCN)C(N)=O` (stereo partly drawn) [4b] (H-[dK][Nva][Phe(4-NO2)][ξAla(4-thiazolyl)][pS]F[β3hS][βAla][Phe(4-NO2)]K-NH2; N-terminus and C-terminus assumed): the “ΔΔG of point mutation (FA)” value is -0.1 ± 0.3 kcal/mol. The “Affinity Kd” value (replicate 1) amounted to 46 nM. For the same molecule, the “Affinity Kd” value (replicate 2) came out at 33 nM. Besides, the “Affinity Kd” value (replicate 3) was 87 nM. Moreover, the pKd (mean of n = 3) was 7.26. Also, where the note is “FA Kd / Kd of 1, replicate 1”, the “Fold change to 1” value was 0.9. Moreover, the “Fold change to 1” value (FA Kd / Kd of 1, replicate 2) is 0.5. Further, the “Fold change to 1” value (FA Kd / Kd of 1, replicate 3) was 1.2. In addition, the “Fold change to 1” value under setting [1] turned out to be 0.8. Moreover, under setting [2], the ΔG was -9.9 kcal/mol. This molecule showed a ΔG (from FA Kd, replicate 1) of -10.0 kcal/mol. The molecule also yielded a ΔG (from FA Kd, replicate 2) of -10.2 kcal/mol. Under “from FA Kd, replicate 3”, this molecule showed a ΔG of -9.6 kcal/mol. The “ΔΔG to 1” value under setting [3] was -0.1 kcal/mol. Besides, under setting [4], the “ΔΔG to 1” value was -0.5 kcal/mol. Also, the “ΔΔG to 1” value under setting [5] was determined as 0.1 kcal/mol. In addition, the “ΔΔG to 1” value under setting [6] is listed as -0.1 kcal/mol.

For the molecule `CCC[C@H](NC(=O)[C@H](N)CCCCN)C(=O)N[C@@H](Cc1ccc([N+](=O)[O-])cc1)C(=O)NC(Cc1cscn1)C(=O)N[C@@H](COP(=O)(O)O)C(=O)N[C@@H](C)C(=O)N[C@@H](CO)CC(=O)NCCC(=O)N[C@@H](Cc1ccc([N+](=O)[O-])cc1)C(=O)N[C@@H](CCCCN)C(N)=O` (stereo partly drawn) [4c] (H-[dK][Nva][Phe(4-NO2)][ξAla(4-thiazolyl)][pS]A[β3hS][βAla][Phe(4-NO2)]K-NH2; N-terminus and C-terminus assumed), the “ΔΔG of point mutation (FA)” value amounted to 1.8 ± 0.1 kcal/mol. The “Affinity Kd” value (replicate 1) is 1200 nM. For the same molecule, the “Affinity Kd” value (replicate 2) came to 1200 nM. For the same molecule, for the setting “replicate 3”, the “Affinity Kd” value is 1600 nM. The pKd (mean of n = 3) is 5.89. Further, the “Fold change to 1” value (FA Kd / Kd of 1, replicate 1) is given as 24.0. Further, the “Fold change to 1” value (FA Kd / Kd of 1, replicate 2) is 17.0. Further, the “Fold change to 1” value (FA Kd / Kd of 1, replicate 3) stood at 21.3. The “Fold change to 1” value under setting [1] is given as 20.8. Also, the ΔG under setting [2] is reported as -8.0 kcal/mol. For the setting “from FA Kd, replicate 1”, this molecule gave a ΔG of -8.1 kcal/mol. The ΔG (from FA Kd, replicate 2) was -8.1 kcal/mol. For the same molecule, where the note is “from FA Kd, replicate 3”, the ΔG is reported as -7.9 kcal/mol. In addition, under setting [3], the “ΔΔG to 1” value is reported as 1.9 kcal/mol. Also, the “ΔΔG to 1” value under setting [4] was determined as 1.7 kcal/mol. Besides, the “ΔΔG to 1” value under setting [5] is 1.8 kcal/mol. Also, under setting [6], the “ΔΔG to 1” value came out at 1.8 kcal/mol.

As to `CCC[C@H](NC(=O)[C@H](N)CCCCN)C(=O)N[C@@H](Cc1ccc([N+](=O)[O-])cc1)C(=O)NC(Cc1cscn1)C(=O)N[C@@H](COP(=O)(O)O)C(=O)N[C@@H](Cc1ccc([N+](=O)[O-])cc1)C(=O)N[C@@H](CO)CC(=O)NCCC(=O)N[C@@H](Cc1ccc(O)cc1)C(=O)N[C@@H](CCCCN)C(N)=O` (stereo partly drawn) [5a] (H-[dK][Nva][Phe(4-NO2)][ξAla(4-thiazolyl)][pS][Phe(4-NO2)][β3hS][βAla]YK-NH2; N-terminus and C-terminus assumed), the “Affinity Kd” value is, setting by setting: (replicate 1) 1700 nM; (replicate 2) 1200 nM; (replicate 3) 1700 nM. Moreover, the pKd (mean of n = 3) was 5.82. Moreover, the “Fold change to 1” value is reported as 33.2 (FA Kd / Kd of 1, replicate 1); 17.1 (FA Kd / Kd of 1, replicate 2); 22.5 (FA Kd / Kd of 1, replicate 3); 24.2 under setting [1]. Also, the ΔG under setting [2] is -7.9 kcal/mol; the ΔG (from FA Kd, replicate 1) is listed as -7.9 kcal/mol; the ΔG (from FA Kd, replicate 2) was -8.1 kcal/mol; the ΔG (from FA Kd, replicate 3) was -7.9 kcal/mol. In addition, the “ΔΔG to 1” value under setting [3] was found to be 2.1 kcal/mol, the “ΔΔG to 1” value under setting [4] amounted to 1.7 kcal/mol, the “ΔΔG to 1” value under setting [5] is given as 1.8 kcal/mol and the “ΔΔG to 1” value under setting [6] is 1.9 kcal/mol. Moreover, the “14-3-3 binding affinity, result in words” value (replacement of nitro by hydroxy group at +4, compared with 5b, FA and ITC) is on record as “did not restore the binding affinity”.

As to `CCC[C@H](NC(=O)[C@H](N)CCCCN)C(=O)N[C@@H](Cc1ccc([N+](=O)[O-])cc1)C(=O)NC(Cc1cscn1)C(=O)N[C@@H](COP(=O)(O)O)C(=O)N[C@@H](Cc1ccc([N+](=O)[O-])cc1)C(=O)N[C@@H](CO)CC(=O)NCCC(=O)N[C@@H](Cc1ccccc1)C(=O)N[C@@H](CCCCN)C(N)=O` (stereo partly drawn) [5b] (H-[dK][Nva][Phe(4-NO2)][ξAla(4-thiazolyl)][pS][Phe(4-NO2)][β3hS][βAla]FK-NH2; N-terminus and C-terminus assumed), the “Affinity Kd” value amounted to 1300 nM (replicate 1), 1200 nM (replicate 2) and 1800 nM (replicate 3). Also, the pKd (mean of n = 3) is 5.85. Besides, the “Fold change to 1” value reads like this: (FA Kd / Kd of 1, replicate 1) 24.3; (FA Kd / Kd of 1, replicate 2) 16.9; (FA Kd / Kd of 1, replicate 3) 24.9; under setting [1], 22.0. For the same molecule, the ΔG is reported as -8.0 kcal/mol under setting [2]; -8.0 kcal/mol (from FA Kd, replicate 1); -8.1 kcal/mol (from FA Kd, replicate 2); -7.8 kcal/mol (from FA Kd, replicate 3). For the same molecule, the “ΔΔG to 1” value reads like this: under setting [3], 1.9 kcal/mol; under setting [4], 1.7 kcal/mol; under setting [5], 1.9 kcal/mol; under setting [6], 1.8 kcal/mol.

As to `CCC[C@H](NC(=O)[C@H](N)CCCCN)C(=O)N[C@@H](Cc1ccc([N+](=O)[O-])cc1)C(=O)NC(Cc1cscn1)C(=O)N[C@@H](COP(=O)(O)O)C(=O)N[C@@H](Cc1ccc([N+](=O)[O-])cc1)C(=O)N[C@@H](CO)CC(=O)NCCC(=O)N[C@@H](C)C(=O)N[C@@H](CCCCN)C(N)=O` (stereo partly drawn) [5c] (H-[dK][Nva][Phe(4-NO2)][ξAla(4-thiazolyl)][pS][Phe(4-NO2)][β3hS][βAla]AK-NH2; N-terminus and C-terminus assumed), the “Affinity Kd” value reads like this: (replicate 1) 3200 nM; (replicate 2) 2200 nM; (replicate 3) 2900 nM. Moreover, the pKd (mean of n = 3) was 5.55. The “Fold change to 1” value (FA Kd / Kd of 1, replicate 1) amounted to 62.1; the “Fold change to 1” value (FA Kd / Kd of 1, replicate 2) is listed as 31.0; the “Fold change to 1” value (FA Kd / Kd of 1, replicate 3) is 39.8; the “Fold change to 1” value under setting [1] is 44.3. The ΔG reads like this: under setting [2], -7.6 kcal/mol; (from FA Kd, replicate 1) -7.5 kcal/mol; (from FA Kd, replicate 2) -7.7 kcal/mol; (from FA Kd, replicate 3) -7.5 kcal/mol. Besides, the “ΔΔG to 1” value is, setting by setting: under setting [3], 2.4 kcal/mol; under setting [4], 2.0 kcal/mol; under setting [5], 2.2 kcal/mol; under setting [6], 2.2 kcal/mol.

The values are drawn from PMC9667936, “Functional mapping of the 14-3-3 hub protein as a guide to design 14-3-3 molecular glues” (Chemical Science, 2022).
